Measured values from US20080125445A1, “5,6-Dialkyl-7-Amino-Azolopyrimidines, Method For Their Production, Their Use For Controlling Pathogenic Fungi and Agents Containing Said Compounds” (BASF Aktiengesellschaft, priority 2005, published 2008).

Tested on: Plasmopara viticola
Assay: Activity against Peronospora of grapevines caused by Plasmopara viticola (comparative test, protective spray)
Format: in vivo
Settings: leaves of potted grapevines sprayed to runoff, inoculated next day; infection on undersides of leaves determined visually; untreated 100%; active compound concentration not given
Protocol: The active compounds were prepared as a stock solution comprising 25 mg of active compound which was made up to 10 ml using a mixture of acetone and/or DMSO and the emulsifier Uniperol® EL (wetting agent having emulsifying and dispersing action based on ethoxylated alkylphenols) in a volume ratio of solvent/emulsifier of 99/1. The mixture was then made up to 100 ml with water. This stock solution was diluted with the solvent/emulsifier/water mixture described to the concentration of active compounds stated below. Leaves of potted grapevines were sprayed to runoff point with an aqueous suspension having the concentration of active compound stated below. The next day, the undersides of the leaves were inoculated with an aqueous sporangia suspension of Plasmopara viticola. The grapevines were then initially placed in a water vapor-saturated chamber at 24° C. for 48 hours and then in a greenhouse at temperatures between 20 and 30° C. for 5 days. After this time, the plants were again placed into a moist chamber for 16 hours to accelerate sporangiophore eruption. The extent of the development of the infection on the undersides of the leaves was then determined visually.

| Structure (SMILES) | Infection in % |
| --- | --- |
| CCCCc1nc2cc(C)nn2c(N)c1CCCC [Compound 17] | 25% |
| CCCCCc1nc2cc(C)nn2c(N)c1CCCCC [Compound I-1, 2-methyl-5,6-dipentylpyrazolo[1,5-a]pyrimidin-7-ylamine] | 3% |
